{"source": "patent US8058242B2", "about": "“Chimeric proteins with natriuretic activity” (The University of Queensland, priority 2004, dated 2011)", "key": {"[1]": {"test_system": "conscious rabbits", "experiment": "Blood pressure and heart rate in conscious rabbits, intravenous infusion dose-response (Example 8)", "settings": "for Diastolic BP, mean difference from control / HR, mean difference from control / Mean BP, mean difference from control / Systolic BP, mean difference from control: 45 min"}, "[2]": {"biological_target": "T1, Plasmin (Homo sapiens, UniProt P00747)", "T1 construct": "with 500 ng Endopeptidase (NEP) or 10 μg Plasmin", "T1 sequence (P00747 97-580 partner limits assumed, species assumed)": "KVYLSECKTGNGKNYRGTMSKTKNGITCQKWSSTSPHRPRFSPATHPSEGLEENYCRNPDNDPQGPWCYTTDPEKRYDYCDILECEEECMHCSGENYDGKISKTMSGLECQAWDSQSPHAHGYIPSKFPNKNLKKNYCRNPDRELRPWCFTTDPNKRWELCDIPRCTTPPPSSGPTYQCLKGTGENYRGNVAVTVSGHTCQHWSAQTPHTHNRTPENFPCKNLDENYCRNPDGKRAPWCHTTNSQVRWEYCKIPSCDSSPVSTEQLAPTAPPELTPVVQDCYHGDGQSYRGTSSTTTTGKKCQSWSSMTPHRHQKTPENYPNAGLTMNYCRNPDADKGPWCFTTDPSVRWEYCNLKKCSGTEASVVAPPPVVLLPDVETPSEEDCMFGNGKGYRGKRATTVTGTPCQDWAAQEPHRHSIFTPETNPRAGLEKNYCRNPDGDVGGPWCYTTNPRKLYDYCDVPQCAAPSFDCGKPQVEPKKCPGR", "T1 sequence (P00747 581-810 limits assumed, species assumed)": "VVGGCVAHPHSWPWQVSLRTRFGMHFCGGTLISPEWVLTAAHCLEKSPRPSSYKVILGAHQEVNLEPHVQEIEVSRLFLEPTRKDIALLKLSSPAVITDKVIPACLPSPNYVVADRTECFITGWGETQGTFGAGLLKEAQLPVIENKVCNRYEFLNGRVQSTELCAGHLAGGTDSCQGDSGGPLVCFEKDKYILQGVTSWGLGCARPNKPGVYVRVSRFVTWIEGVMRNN", "experiment": "Stability to enzymatic degradation by plasmin (Examples 7, 16)", "assay_type": "in vitro ADME", "settings": "plasmin, 37° C.", "how_it_was_run": "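Peptide (100 μl of 500 μM) was incubated at 37 °C in 100 mM Tris/HCl, 150 mM NaCl, pH 7.2-7.4 with 500 ng NEP or 10 μg plasmin. Samples were taken from 5 min to 24 h and heat-quenched at 100 °C for 4 min. Remaining peptide was measured by RP-HPLC.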"}, "[3]": {"test_system": "endothelium-intact aortic rings (NPR-C mediated)", "experiment": "Aortic ring relaxation, endothelium-intact rings pre-contracted with 40 mM KCl (Example 3)", "parameters": "species or system rat", "settings": "endothelium-intact rat aortas pre-contracted with 40 mM KCl; peptide 0.1 μM", "procedure": "(§1) Male Sprague Dawley rats were killed and the descending thoracic aorta rapidly removed and flushed with physiological solution. After being cleared of adhering fat and connective tissue, 5 mm rings were mounted under 10 g resting tension, between two stainless steel hooks, in organ baths (37° C.) containing carbogenated (95% O2 and 5% CO2) physiological salt solution of the following composition (mM): NaCl, 118.4; NaHCO3, 25; glucose, 11; KCl, 4.7; MgSO4, 1.2; KH2PO4, 1.2 and CaCl2, 2.5. The lower hook was attached to a tissue holder and the upper hook to a force displacement transducer (Grass FTO3). Where indicated endothelial cells were removed by gentle rubbing of the intimal surface with a wire. To confirm the presence or absence of endothelial cells, tissues were precontracted with a sub-maximal concentration of phenylephrine (0.3 μM) and the response to acetylcholine (ACh, 10 μM) observed. Ach-induced relaxation greater than 80% of maximum indicated the presence of endothelium; whereas Ach-induced relaxation less than 10% indicated the absence of endothelium. Ring preparations under resting tension were conditioned by two contraction/relaxation cycles with 40 mM KCl, contracted by a third application of 40 mM KCl and then relaxed with different doses of the venom peptides. Responses were expressed as a percentage relaxation of the precontraction by KCl."}, "[4]": {"biological_target": "T2, Natriuretic Peptide Receptor-A (NPR-A) signaling in MDCK cells (Canis lupus familiaris, UniProt A0A8I3MHU3)", "T2 sequence (A0A8I3MHU3 32-1060)": "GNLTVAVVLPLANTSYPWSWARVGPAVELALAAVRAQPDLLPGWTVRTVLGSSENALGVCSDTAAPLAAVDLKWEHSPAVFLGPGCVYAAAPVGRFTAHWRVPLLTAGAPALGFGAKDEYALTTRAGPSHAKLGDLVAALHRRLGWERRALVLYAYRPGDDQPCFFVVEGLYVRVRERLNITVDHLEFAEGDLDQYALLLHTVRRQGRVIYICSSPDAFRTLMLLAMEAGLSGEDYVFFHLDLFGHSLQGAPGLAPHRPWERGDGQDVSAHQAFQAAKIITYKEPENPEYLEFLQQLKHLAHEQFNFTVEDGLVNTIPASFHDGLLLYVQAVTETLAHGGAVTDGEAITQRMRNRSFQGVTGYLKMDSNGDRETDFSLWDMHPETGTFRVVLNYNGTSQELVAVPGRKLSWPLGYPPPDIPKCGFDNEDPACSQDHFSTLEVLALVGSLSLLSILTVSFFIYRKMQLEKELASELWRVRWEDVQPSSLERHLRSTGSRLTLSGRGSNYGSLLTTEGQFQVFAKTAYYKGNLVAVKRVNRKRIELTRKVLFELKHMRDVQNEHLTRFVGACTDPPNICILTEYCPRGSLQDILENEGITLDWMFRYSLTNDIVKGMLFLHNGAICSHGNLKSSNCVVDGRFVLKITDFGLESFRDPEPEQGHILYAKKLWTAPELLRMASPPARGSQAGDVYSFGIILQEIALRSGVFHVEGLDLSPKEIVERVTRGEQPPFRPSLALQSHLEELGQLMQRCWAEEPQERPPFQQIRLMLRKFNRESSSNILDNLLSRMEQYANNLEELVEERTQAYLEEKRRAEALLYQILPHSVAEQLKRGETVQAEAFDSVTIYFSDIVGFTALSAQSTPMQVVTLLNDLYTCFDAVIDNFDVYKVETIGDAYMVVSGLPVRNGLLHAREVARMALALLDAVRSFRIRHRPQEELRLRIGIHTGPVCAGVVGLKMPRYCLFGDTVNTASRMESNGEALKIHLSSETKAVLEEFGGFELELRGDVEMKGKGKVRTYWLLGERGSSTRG", "assay_type": "cell-based, canine", "settings": "stimulation of cGMP accumulation in MDCK cells"}, "[5]": {"test_system": "endothelium-denuded aortic rings (GC-A mediated)", "experiment": "Aortic ring relaxation, endothelium-denuded rings pre-contracted with 40 mM KCl (Example 3)", "parameters": "species or system rat", "settings": "endothelium-denuded rat aortas pre-contracted with 40 mM KCl; peptide 0.1 μM", "procedure": "as §1"}, "[6]": {"settings": "average of the 3 doses 1.0, 2.0, 4.0 μg/kg/min"}}, "note": "“And” between values parts separate entries of the source, which are not always exact repeats. Identical values can stand only once. Positions of bridges follow the written chain, without caps; N, C: chain ends. Residues, ends and D or L forms follow the SMILES beside them."}
{"smiles": "CC[C@H](C)[C@H](NC(=O)[C@H](CCCCN)NC(=O)[C@H](CO)NC(=O)[C@H](CC(=O)O)NC(=O)[C@@H](N)CO)C(=O)NCC(=O)N[C@@H](CC(N)=O)C(=O)NCC(=O)N[C@H]1CSSC[C@@H](C(=O)N[C@@H](CC(N)=O)C(=O)N[C@@H](CCCNC(=N)N)C(=O)N[C@H](C(=O)N[C@@H](CCSC)C(=O)N[C@@H](CCC(N)=O)C(=O)N[C@@H](CC(N)=O)C(=O)N2CCC[C@H]2C(=O)N2CCC[C@H]2C(=O)N[C@@H](CCCCN)C(=O)N[C@@H](CCCCN)C(=O)N[C@@H](Cc2ccccc2)C(=O)N[C@@H](CO)C(=O)NCC(=O)N[C@@H](CCC(=O)O)C(=O)O)[C@@H](C)CC)NC(=O)CNC(=O)[C@H](CC(C)C)NC(=O)CNC(=O)[C@H](CO)NC(=O)[C@H](C(C)C)NC(=O)[C@H](CO)NC(=O)CNC(=O)[C@H]([C@@H](C)CC)NC(=O)[C@H](CCCNC(=N)N)NC(=O)[C@H](CC(=O)O)NC(=O)[C@H](CC(C)C)NC(=O)[C@@H]2CCCN2C(=O)[C@H](Cc2ccccc2)NC(=O)CNC(=O)[C@H](Cc2ccccc2)NC1=O", "note": "[TNPc] (H-SDSKIGNGCFGFPLDRIGSVSGLGCNRIMQNPPKKFSGE-OH; disulfide 9-25)", "values": [{"measurement": "recovery of MAP, in words", "setting": "[1]; 2 hours after infusion", "value": "remained suppressed for 2 hours"}, {"measurement": "MAP at final dose", "setting": "[1]; Table 10B", "value": "58.9 mm Hg and 61.3 mm Hg"}, {"measurement": "Recovery (MAP)", "setting": "[1]; after 1 hour recovery period, Table 10A", "value": "56.6 mm Hg and 58.8 mm Hg"}, {"measurement": "Recovery (MAP)", "setting": "[1]; after a 2 hour recovery period, Table 10B", "value": "58.8 mm Hg and 66.1 mm Hg"}, {"measurement": "Diastolic BP, Average Response SED", "setting": "[1]; [6]", "value": "−12.5 ± 0.6", "unit": "mmHg"}, {"measurement": "HR, Average Response SED", "setting": "[1]; [6]", "value": "4.7 ± 3.8", "unit": "bpm"}, {"measurement": "Mean BP (MAP), Average Response SED", "setting": "[1]; [6]", "value": "−14.9±0.7", "unit": "mmHg"}, {"measurement": "Systolic BP, Average Response SED", "setting": "[1]; [6]", "value": "−13.2 ± 0.8", "unit": "mmHg"}, {"measurement": "effective half life compared to BNP", "setting": "[1]; bolus injection", "value": 3, "unit": "fold"}, {"measurement": "time taken to recover to 50% of the peak response", "setting": "[1]; bolus injection of 0.24 mg/kg TNPc or equivalent molar dose of BNP", "value": 225, "unit": "min"}, {"measurement": "MAP at final dose", "setting": "[1]; highest dose, Table 10A", "value": "56.1 mm Hg and 58.9 mm Hg"}, {"measurement": "Diastolic BP, mean difference from control", "setting": "[1]; i.v. infusion 1.0 μg/kg/min", "value": "−10.0", "unit": "mmHg"}, {"measurement": "HR, mean difference from control", "setting": "[1]; i.v. infusion 1.0 μg/kg/min", "value": "−3.5", "unit": "bpm"}, {"measurement": "Mean BP, mean difference from control", "setting": "[1]; i.v. infusion 1.0 μg/kg/min", "value": "−11.0", "unit": "mmHg"}, {"measurement": "Systolic BP, mean difference from control", "setting": "[1]; i.v. infusion 1.0 μg/kg/min", "value": "−9.1", "unit": "mmHg"}, {"measurement": "Diastolic BP, mean difference from control", "setting": "[1]; i.v. infusion 2.0 μg/kg/min", "value": "−14.7", "unit": "mmHg"}, {"measurement": "HR, mean difference from control", "setting": "[1]; i.v. infusion 2.0 μg/kg/min", "value": 3.7, "unit": "bpm"}, {"measurement": "Mean BP, mean difference from control", "setting": "[1]; i.v. infusion 2.0 μg/kg/min", "value": "−17.7", "unit": "mmHg"}, {"measurement": "Systolic BP, mean difference from control", "setting": "[1]; i.v. infusion 2.0 μg/kg/min", "value": "−15.6", "unit": "mmHg"}, {"measurement": "Diastolic BP, mean difference from control", "setting": "[1]; i.v. infusion 4.0 μg/kg/min", "value": "−12.8", "unit": "mmHg"}, {"measurement": "HR, mean difference from control", "setting": "[1]; i.v. infusion 4.0 μg/kg/min", "value": 13.8, "unit": "bpm"}, {"measurement": "Mean BP, mean difference from control", "setting": "[1]; i.v. infusion 4.0 μg/kg/min", "value": "−15.9", "unit": "mmHg"}, {"measurement": "Systolic BP, mean difference from control", "setting": "[1]; i.v. infusion 4.0 μg/kg/min", "value": "−14.9", "unit": "mmHg"}, {"measurement": "recovery of MAP from the hypotension, in words", "setting": "[1]; one hour after the end of infusion", "value": "MAP had not changed"}, {"measurement": "half-life at 125 μM", "setting": "[2]; plasmin in Tris/HCl-NaCl buffer, read-out: HalfLife in plasmin", "value": 23.6, "unit": "min"}, {"measurement": "K (one phase exponential decay, best fit values)", "setting": "[2]", "value": 0.02935}, {"measurement": "PLATEAU (one phase exponential decay, best fit values)", "setting": "[2]", "value": 0.1128}, {"measurement": "SPAN (one phase exponential decay, best fit values)", "setting": "[2]", "value": 0.8454}, {"measurement": "percentage relaxation of the precontraction by KCl", "setting": "[3]", "value": "~100", "unit": "%"}, {"measurement": "−Log10 EC50 (pEC50) ± Standard Error", "setting": "[4]", "value": "6.928 ± 0.1122"}, {"measurement": "EC50", "setting": "[4]; read-out: EC50 (M) ± Standard Error", "value": "1.84e-07", "unit": "M"}, {"measurement": "percentage relaxation of the precontraction by KCl", "setting": "[5]", "value": "~100", "unit": "%"}]}
